The nature of data set [1]: xn = mol fraction of the nth substance listed. As to conditions: 101 kPa, Liquid, x1 = 1; for viscosity: Capillary tube (Ostwald / Ubbelohde) method; for speed of sound: Frequency=2 MHz, Linear variable-path acoustic interferometer; for mass density: Vibrating tube method.
For data set [2] the following is noted: 101.33 kPa, Liquid; for viscosity: Capillary tube (Ostwald / Ubbelohde) method; for mass density: Vibrating tube method.

± gives the expanded uncertainty stated by the source.

In general, viscosity refers to the resistance of a fluid to flow. Usually speed of sound stands for how fast a sound wave travels through the sample. Broadly, the mass density is the mass of a sample divided by its volume.

Turning to `C1COCCO1` [1,4-dioxane] + ClCCCl, the viscosity worked out at 1.178 ± 0.036 mPa·s in data set [1] (298.15 K), 1.009 ± 0.031 mPa·s in data set [1] (308.15 K) and 0.8896 ± 0.027 mPa·s in data set [1] (318.15 K). For the same compound, the speed of sound in data set [1] (298.15 K) is 1343.4 ± 1.4 m/s. The figures for the mass density in data set [1] (298.15 K), in data set [1] (308.15 K) and in data set [1] (318.15 K) were 1027.79 ± 0.11 kg/m3, 1016.78 ± 0.11 kg/m3 and 1005.24 ± 0.11 kg/m3, respectively.
With `C1COCCO1` [1,4-dioxane], the viscosity in data set [2] (298.15 K) stood at 1.178 ± 0.036 mPa·s; in data set [2] (308.15 K) it was 1.009 ± 0.031 mPa·s; in data set [2] (318.15 K), 0.8896 ± 0.027 mPa·s. Besides, the mass density amounted to 1027.79 ± 0.11 kg/m3 in data set [2] (298.15 K), 1016.78 ± 0.11 kg/m3 in data set [2] (308.15 K) and 1005.24 ± 0.11 kg/m3 in data set [2] (318.15 K).
Regarding `NCCO` [2-aminoethan-1-ol], the viscosity in data set [2] (298.15 K) amounted to 18.95 ± 0.58 mPa·s; in data set [2] (308.15 K) it was 11.96 ± 0.37 mPa·s; in data set [2] (318.15 K), 7.913 ± 0.24 mPa·s. Moreover, the mass density in data set [2] (298.15 K) was 1011.79 ± 0.24 kg/m3; in data set [2] (308.15 K), 1004.68 ± 0.23 kg/m3; in data set [2] (318.15 K), 998.15 ± 0.23 kg/m3.
Take `C1COCCO1` [1,4-dioxane] + NCCN: the speed of sound in data set [1] (298.15 K) is listed as 1343.4 ± 1.4 m/s. The mass density in data set [1] (298.15 K) amounted to 1027.79 ± 0.11 kg/m3; in data set [1] (308.15 K), 1016.78 ± 0.11 kg/m3; in data set [1] (318.15 K), 1005.24 ± 0.11 kg/m3. Also, the viscosity in data set [1] (298.18 K) is 1.178 ± 0.036 mPa·s; in data set [1] (308.15 K) it was 1.009 ± 0.031 mPa·s; in data set [1] (318.15 K) it was 0.8896 ± 0.027 mPa·s.
For the compound `ClCCCl` [1,2-dichloroethane], the viscosity was determined as 0.7804 ± 0.024 mPa·s in data set [2] (298.15 K), 0.6744 ± 0.021 mPa·s in data set [2] (308.15 K) and 0.5719 ± 0.017 mPa·s in data set [2] (318.15 K). Further, the mass density amounted to 1246.37 ± 0.17 kg/m3 in data set [2] (298.15 K), 1231.21 ± 0.16 kg/m3 in data set [2] (308.15 K) and 1214.55 ± 0.16 kg/m3 in data set [2] (318.15 K).
For the compound `NCCN` [ethane-1,2-diamine], the viscosity in data set [2] (298.15 K) is given as 1.276 ± 0.039 mPa·s; in data set [2] (308.15 K) it was 1.107 ± 0.034 mPa·s; in data set [2] (318.15 K), 0.9445 ± 0.029 mPa·s. Further, the mass density in data set [2] (298.15 K) stood at 894.79 ± 0.23 kg/m3; in data set [2] (308.15 K) it was 885.63 ± 0.24 kg/m3; in data set [2] (318.15 K), 867.62 ± 0.24 kg/m3.
For `C1COCCO1` [1,4-dioxane] + NCCO, in data set [1] (298.15 K), the viscosity was 1.178 ± 0.036 mPa·s, the speed of sound was found to be 1343.4 ± 1.4 m/s and the mass density was 1027.79 ± 0.11 kg/m3. In data set [1] (308.15 K), the viscosity is reported as 1.009 ± 0.031 mPa·s and the mass density was determined as 1016.78 ± 0.11 kg/m3. In data set [1] (318.15 K), the viscosity is reported as 0.8896 ± 0.027 mPa·s and the mass density amounted to 1005.24 ± 0.11 kg/m3.

Values taken from the NIST ThermoML archive (doi:10.1016/j.fluid.2015.06.041).
